Values quoted from earlier work as cited in patent US9067940B2, “Alicyclic derivatives of N,N'-substituted 3,7-diazabicyclo[3.3.1]nonanes and medicaments based thereon” (priority 2011, dated 2015).
Each block holds one molecule with its values, some of them ahead of it.

Assays:
AMPA receptors [1] = tested on: AMPA receptors
AMPA receptors [2] = conditions: only at high concentrations
AMPA receptors [3] = conditions: adult rats, 0.3-3 mg/kg
[4] = behavioral models
[5] = mice suffering from diabetes

effect on synaptic signal at several hippocampus sites (AMPA receptors [1]): enhances the synaptic signal
concentration at which the clinical effect is manifested (AMPA receptors [2]): 0.1 mM
Molecule: COc1ccc(C(=O)N2CCCC2=O)cc1 [aniracetam]
effect on NMDA-mediated signals (NMDA-mediated signals): no effect

Molecule: O=C(c1ccc2c(c1)OCCO2)N1CCCCC1 [CX546]
social memory (AMPA receptors [3]): improves social memory

aniracetam-like effects (AMPA receptors [1]; metabolite of aniracetam): no aniracetam-like effects
Molecule: COc1ccc(C(=O)NCCCC(=O)O)cc1 [anisoyl-GABA]

B1: BDNF: brain-derived neurotrophic factor, a neural tissue growth factor (protein, UniProt P23560 19-247, looked up)
Neurotrophic factor BDNF …: APMKEANIRGQGGLAYPGVRTHGTLESVNGPKAGSRGLTSLADTFEHVIEELLDEDQKVRPNEENNKDADLYTSRVMLSSQVPLEPPLLFLLEEYKNYLDAANMSMRVRRHSDPARRGELSVCDSISEWVTAADKKTAVDMSGGTVTVLEKVPVSKGQLKQYFYETKCNPMGYTKEGCRGIDKRHWNSQCRTTQSYVRALTMDSKKRIGWRFIRIDTSCVCTLTIKRGR
antidepressant effect [4]: antidepressant effect
blood glucose concentration [5]: reduce the blood glucose concentration
